Reference: US20220402916A1, “SMALL MOLECULE INHIBITORS OF KRAS G12C MUTANT” (Merck Sharp & Dohme Corp., priority 2019, published 2022)

Molecular target: T1, Biotinylated KRAS G12C protein (Homo sapiens, UniProt P01116, C118S/C51S/C80L/G12C)
T1 construct: 183 amino acids; biotin on K10
Experiment: SOS-catalyzed nucleotide exchange assay
Format: biochemical
Conditions: for IC50: apparent potency, preincubation time of 60 minutes prior to addition of SOS; for inhibition at 10 µM: 10,000 nM, 60 minutes of preincubation prior to addition of SOS
Description: Compounds are added to this complex, and then after 60 minute incubation time the mixture is treated with recombinant SOS protein and unlabeled GTP. Small molecule inhibitors stabilize the Bodipy-GDP complex whereas the untreated protein rapidly exchanges Bodipy-GDP for unlabeled GTP resulting in reduced TR-FRET signal. […] This mixture is then further diluted to 90 nM in an assay buffer (20 mM HEPES, 150 mM sodium chloride, 10 mM magnesium chloride, and 0.005% Tween) containing 15 nM of Terbium-Streptavidin (Invitrogen, catalog #PV3577) and 900 nM of Bodipy-GDP and incubated at room temperature for six hours. […] Each test compound (10 mM stock in DMSO) is diluted in DMSO to make a 10-point, 3-fold dilution series in a 384-well low dead volume microplate (Labcyte, catalog #LP-0200). Once titrations are made, 10 nL of the diluted compounds is acoustically dispensed into a 384-well assay plate (Corning, catalog #3820) using an Echo 550 (Labcyte). […] Each well then receives 3 μL of 240 nM recombinant human SOS protein and 9 mM GTP (Sigma, G8877) in assay buffer and is incubated at room temperature for 60 minutes. The time-resolved fluorescence resonance energy transfer signal for the assay plate is measured on an Envision (PerkinElmer) plate reader: Excitation filter=340 nm; emission1=495 nm; emission2=520 nm; dichroic mirror=D400/D505; delay time=100 μs. The signal of each well is determined as the ratio of the emission at 520 nm to that at 495 nm. […] The apparent effect as a function of compound concentration is fit to a four parameter logistic equation.

T1 sequence (P01116 with tags, fused parts or gaps isoform P01116-2 G12C/C51S/C80L/C118S): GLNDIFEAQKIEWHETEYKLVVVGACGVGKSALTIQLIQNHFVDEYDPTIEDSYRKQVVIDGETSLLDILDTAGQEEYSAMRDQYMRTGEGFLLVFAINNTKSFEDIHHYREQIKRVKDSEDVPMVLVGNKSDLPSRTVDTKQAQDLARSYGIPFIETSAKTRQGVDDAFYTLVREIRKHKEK

## C=CC(=O)N1CCN(c2cc(C(=O)NCC(C)N(C)C)nc3c2CCN(c2cccc4ccccc24)C3)CC1 (racemic) [Compound 5, rac-4-(4-acryloylpiperazin-1-yl)-N-(2-(dimethylamino)propyl)-7-(naphthalen-1-yl)-5,6,7,8-tetrahydro-1,7-naphthyridine-2-carboxamide]
  IC50: 6020 nM

## C=CC(=O)N1CCN(c2cc(C(=O)NC(C)CN(C)C)nc3c2CCN(c2cccc4ccccc24)C3)CC1 (racemic) [Compound 6, rac-4-(4-acryloylpiperazin-1-yl)-N-(1-(dimethylamino)propan-2-yl)-7-(naphthalen-1-yl)-5,6,7,8-tetrahydro-1,7-naphthyridine-2-carboxamide]
  IC50: 1690 nM

## C=CC(=O)N1CCN(c2cc(C(=O)N[C@@H]3CCC[C@H]3N(C)C)nc3c2CCN(c2cccc4ccccc24)C3)CC1 (racemic) [Compound 7, rac-4-(4-acryloylpiperazin-1-yl)-N-(trans-2-(dimethylamino)cyclo-pentyl)-7-(naphthalen-1-yl)-5,6,7,8-tetrahydro-1,7-naphthyridine-2-carboxamide]
  IC50: 1590 nM

## C=CC(=O)N1CCN(c2cc(C(=O)NC(CO)CN(C)C)nc3c2CCN(c2cccc4cccc(C)c24)C3)CC1 (racemic) [Compound 16, rac-4-(4-acryloylpiperazin-1-yl)-N-(1-(dimethylamino)-3-hydroxypropan-2-yl)-7-(8-methylnaphthalen-1-yl)-5,6,7,8-tetrahydro-1,7-naphthyridine-2-carboxamide]
  IC50: 962 nM

## C=CC(=O)N1CCN(c2cc(C(=O)NC(CN(C)C)C(C)C)nc3c2CCN(c2cccc4cccc(C)c24)C3)CC1 (racemic) [Compound 18, rac-4-(4-acryloylpiperazin-1-yl)-N-(1-(dimethylamino)-3-methylbutan-2-yl)-7-(8-methylnaphthalen-1-yl)-5,6,7,8-tetrahydro-1,7-naphthyridine-2-carboxamide]
  IC50: 145 nM

## C=CC(=O)N1CCN(c2cc(C(=O)NC(C)CN(CC)CC)nc3c2CCN(c2cccc4cccc(C)c24)C3)CC1 (racemic) [Compound 19, rac-4-(4-acryloylpiperazin-1-yl)-N-(1-(diethylamino)propan-2-yl)-7-(8-methylnaphthalen-1-yl)-5,6,7,8-tetrahydro-1,7-naphthyridine-2-carboxamide]
  IC50: 3740 nM

## C=CC(=O)N1CCN(c2cc(C(=O)NC(CC(C)C)CN(C)C)nc3c2CCN(c2cccc4cccc(C)c24)C3)CC1 (racemic) [Compound 20, rac-4-(4-acryloylpiperazin-1-yl)-N-(1-(dimethylamino)-4-methylpentan-2-yl)-7-(8-methylnaphthalen-1-yl)-5,6,7,8-tetrahydro-1,7-naphthyridine-2-carboxamide]
  inhibition at 10 µM: 30%

## C=CC(=O)N1CCN(c2cc(C(=O)NC(C)CCN(C)C)nc3c2CCN(c2cccc4cccc(C)c24)C3)CC1 (racemic) [Compound 21, rac-4-(4-acryloylpiperazin-1-yl)-N-(4-(dimethylamino)butan-2-yl)-7-(8-methylnaphthalen-1-yl)-5,6,7,8-tetrahydro-1,7-naphthyridine-2-carboxamide]
  IC50: 3180 nM

## C=CC(=O)N1CCN(c2cc(C(=O)N[C@@H]3COC[C@@H]3N3CCOCC3)nc3c2CCN(c2cccc4cccc(C)c24)C3)CC1 (racemic) [Compound 27, rac-4-(4-acryloylpiperazin-1-yl)-7-(8-methylnaphthalen-1-yl)-N-(cis-4-morpholinotetrahydrofuran-3-yl)-5,6,7,8-tetrahydro-1,7-naphthyridine-2-carboxamide]
  inhibition at 10 µM: 29%

## C=CC(=O)N1CCN(c2cc(C(=O)N[C@H]3COC[C@H]3N)nc3c2CCN(c2cccc4cccc(C)c24)C3)CC1 (racemic) [Compound 28, rac-4-(4-acryloylpiperazin-1-yl)-N-(cis-4-aminotetrahydrofuran-3-yl)-7-(8-methylnaphthalen-1-yl)-5,6,7,8-tetrahydro-1,7-naphthyridine-2-carboxamide]
  IC50: 7320 nM

## C=CC(=O)N1CCN(c2cc(C(=O)N[C@@H]3CCC[C@H]3N(C)C)nc3c2CCN(c2cccc4cccc(C)c24)C3)CC1 (racemic) [Compound 29, rac-4-(4-acryloylpiperazin-1-yl)-N-(trans-2-(dimethylamino)cyclopentyl)-7-(8-methylnaphthalen-1-yl)-5,6,7,8-tetrahydro-1,7-naphthyridine-2-carboxamide]
  IC50: 259 nM

## C=CC(=O)N1CCN(c2cc(C(=O)N[C@H]3COC[C@@H]3N(C)C)nc3c2CCN(c2cccc4cccc(C)c24)C3)CC1 (racemic) [Compound 32, rac-4-(4-acryloylpiperazin-1-yl)-N-(trans-4-(dimethylamino)tetrahydro-furan-3-yl)-7-(8-methylnaphthalen-1-yl)-5,6,7,8-tetrahydro-1,7-naphthyridine-2-carboxamide]
  IC50: 4470 nM

## C=CC(=O)N1CCN(c2cc(C(=O)N[C@H]3COC[C@@H]3N3CCN(C)CC3)nc3c2CCN(c2cccc4cccc(C)c24)C3)CC1 (racemic) [Compound 33, rac-4-(4-acryloylpiperazin-1-yl)-7-(8-methylnaphthalen-1-yl)-N-(trans-4-(4-methylpiperazin-1-yl)tetrahydrofuran-3-yl)-5,6,7,8-tetrahydro-1,7-naphthyridine-2-carboxamide]
  IC50: 6650 nM

## C=CC(=O)N1CCN(c2cc(C(=O)N[C@H]3CCC[C@@H]3N3CCOCC3)nc3c2CCN(c2cccc4cccc(C)c24)C3)CC1 (racemic) [Compound 34, rac-4-(4-acryloylpiperazin-1-yl)-7-(8-methylnaphthalen-1-yl)-N-(trans-2-morpholinocyclopentyl)-5,6,7,8-tetrahydro-1,7-naphthyridine-2-carboxamide]
  IC50: 3570 nM

## C=CC(=O)N1CCN(c2cc(C(=O)N[C@H]3COC[C@@H]3N3CCOCC3)nc3c2CCN(c2cccc4cccc(C)c24)C3)CC1 (racemic) [Compound 35, rac-4-(4-acryloylpiperazin-1-yl)-7-(8-methylnaphthalen-1-yl)-N-(trans-4-morpholinotetrahydrofuran-3-yl)-5,6,7,8-tetrahydro-1,7-naphthyridine-2-carboxamide]
  inhibition at 10 µM: 39%

## C=CC(=O)N1CCN(c2cc(C(=O)N[C@H]3COC[C@@H]3N)nc3c2CCN(c2cccc4cccc(C)c24)C3)CC1 (racemic) [Compound 36, rac-4-(4-acryloylpiperazin-1-yl)-N-(trans-4-aminotetrahydrofuran-3-yl)-7-(8-methylnaphthalen-1-yl)-5,6,7,8-tetrahydro-1,7-naphthyridine-2-carboxamide]
  IC50: 1520 nM

## C=CC(=O)N1CCN(c2cc(C(=O)N[C@H]3CC[C@@H]3N)nc3c2CCN(c2cccc4cccc(C)c24)C3)CC1 (racemic) [Compound 37, rac-4-(4-acryloylpiperazin-1-yl)-N-(trans-2-aminocyclobutyl)-7-(8-methylnaphthalen-1-yl)-5,6,7,8-tetrahydro-1,7-naphthyridine-2-carboxamide]
  IC50: 468 nM

## C=CC(=O)N1CCN(c2cc(C(=O)N[C@@H]3C[C@@H]3N)nc3c2CCN(c2cccc4cccc(C)c24)C3)CC1 (racemic) [Compound 38, rac-4-(4-acryloylpiperazin-1-yl)-N-(cis-2-aminocyclopropyl)-7-(8-methylnaphthalen-1-yl)-5,6,7,8-tetrahydro-1,7-naphthyridine-2-carboxamide]
  IC50: 4770 nM
